One assay deals with Escherichia coli. The assay can be described thus: Antimicrobial activity against Escherichia coli ATCC 25922 by micro broth dilution or agar based method. The class given is functional.
A further assay concerns Enterococcus faecium. In words: Antimicrobial activity against vancomycin-resistant Enterococcus faecium VanA by micro broth dilution or agar based method. It counts as functional.
Another assay has as its system Streptococcus pneumoniae. The assay can be described thus: Antimicrobial activity against Streptococcus pneumoniae IID553 by micro broth dilution or agar based method. It counts as functional. (Broth dilution looks for growth in wells or tubes with falling amounts of substance.)
For assay [1], the system named is Staphylococcus aureus. The assay can be described thus: Antimicrobial activity against methicillin-resistant Staphylococcus aureus OIT971 by micro broth dilution or agar based method. The class given is functional, organism-based.
The subject of another assay is Acinetobacter baumannii. In words: Antimicrobial activity against Acinetobacter baumannii IID876 by micro broth dilution or agar based method. It counts as functional.
Assay [2] deals with Staphylococcus aureus. In words: Antimicrobial activity against Staphylococcus aureus Smith by micro broth dilution or agar based method. The class given is functional.
For a further assay, the system named is Pseudomonas aeruginosa. The assay can be described thus: Antimicrobial activity against Pseudomonas aeruginosa PAO1 by micro broth dilution or agar based method. The class given is functional.

Converted amounts (≈) assume the structure as drawn. The source made the active and inactive calls. How the calls were made is not given here.

Broadly, the MIC is the least concentration at which growth counts as inhibited. Consider `NC1COCC1Oc1ccc2ncc(F)c(CCC34CCC(NCc5ccc6c(n5)NC(=O)CO6)(CC3)CO4)c2n1` (stereo not given), for which the MIC with Escherichia coli was determined as 4 µg/mL (≈ 7.08 µM); in the assay on Enterococcus faecium, 8 µg/mL (≈ 14.2 µM); with Streptococcus pneumoniae, 1 µg/mL (≈ 1.77 µM); against Acinetobacter baumannii, 1 µg/mL (≈ 1.77 µM); in the assay on Staphylococcus aureus [2], 0.125 µg/mL (≈ 0.221 µM); in the assay with Pseudomonas aeruginosa it was 16 µg/mL (≈ 28.3 µM). Also, the “growth inhibition (GI)” value with Staphylococcus aureus [1] is “Active”.

Consider `O=C1COc2ccc(CNC34CCC([C@@H](O)Cc5c(F)cnc6ccc(OCCO)nc56)(CC3)OC4)nc2N1`, for which the MIC in the assay on Escherichia coli came to 8 µg/mL (≈ 14.8 µM); in the assay with Enterococcus faecium it was 4 µg/mL (≈ 7.41 µM); against Streptococcus pneumoniae it was 1 µg/mL (≈ 1.85 µM); in the assay with Acinetobacter baumannii, 2 µg/mL (≈ 3.71 µM); in the assay with Staphylococcus aureus [2] it was 0.125 µg/mL (≈ 0.232 µM); against Pseudomonas aeruginosa, 16 µg/mL (≈ 29.7 µM). Besides, the “growth inhibition (GI)” value with Staphylococcus aureus [1] was “Active”.

Regarding `O=C1COc2ccc(CNC34CCC(CCc5c(F)cnc6ccc(OCC7(C(=O)O)CC7)nc56)(CC3)OC4)nc2N1`, the minimal inhibitory concentration (MIC) stood at 16 µg/mL (≈ 27.7 µM) against Escherichia coli; 16 µg/mL (≈ 27.7 µM) with Enterococcus faecium; 2 µg/mL (≈ 3.46 µM) in the assay on Streptococcus pneumoniae; 16 µg/mL (≈ 27.7 µM) in the assay with Acinetobacter baumannii; 0.5 µg/mL (≈ 0.866 µM) in the assay on Staphylococcus aureus [2]; 16 µg/mL (≈ 27.7 µM) with Pseudomonas aeruginosa. The “growth inhibition (GI)” value with Staphylococcus aureus [1] was “Active”.

For the compound `N[C@H]1CO[C@H]1COc1ccc2ncc(F)c(CCC34CCC(NCc5ccc6c(n5)NC(=O)CO6)(CC3)CO4)c2n1`, the MIC against Escherichia coli was 4 µg/mL (≈ 7.08 µM); with Enterococcus faecium, 4 µg/mL (≈ 7.08 µM); in the assay with Streptococcus pneumoniae it was 0.5 µg/mL (≈ 0.886 µM); against Acinetobacter baumannii, 1 µg/mL (≈ 1.77 µM); in the assay with Staphylococcus aureus [2], 0.063 µg/mL (≈ 0.112 µM); with Pseudomonas aeruginosa it was 32 µg/mL (≈ 56.7 µM). Further, the “growth inhibition (GI)” value in the assay with Staphylococcus aureus [1] is “Active”.

For `N[C@H]1CO[C@@H]1COc1ccc2ncc(F)c(CCC34CCC(NCc5ccc6c(n5)NC(=O)CO6)(CC3)CO4)c2n1`, the MIC came to 4 µg/mL (≈ 7.08 µM) in the assay on Escherichia coli; 4 µg/mL (≈ 7.08 µM) against Enterococcus faecium; 0.5 µg/mL (≈ 0.886 µM) in the assay with Streptococcus pneumoniae; 0.5 µg/mL (≈ 0.886 µM) against Acinetobacter baumannii; 0.125 µg/mL (≈ 0.221 µM) against Staphylococcus aureus [2]; 16 µg/mL (≈ 28.3 µM) in the assay with Pseudomonas aeruginosa. The “growth inhibition (GI)” value in the assay on Staphylococcus aureus [1] was “Active”.

For the compound `COC(=O)CCCCOc1ccc2ncc(F)c(CCC34CCC(NCc5ccc6c(n5)NC(=O)CO6)(CC3)CO4)c2n1`, the minimal inhibitory concentration (MIC) against Escherichia coli came to 4 µg/mL (≈ 6.74 µM); against Enterococcus faecium it was 2 µg/mL (≈ 3.37 µM); in the assay with Streptococcus pneumoniae, 0.5 µg/mL (≈ 0.842 µM); in the assay on Acinetobacter baumannii, 4 µg/mL (≈ 6.74 µM); against Staphylococcus aureus [2] it was 0.063 µg/mL (≈ 0.106 µM); in the assay on Pseudomonas aeruginosa it was 4 µg/mL (≈ 6.74 µM). Besides, the “growth inhibition (GI)” value in the assay with Staphylococcus aureus [1] was “Active”.

On to `CCOC(=O)CCCOc1ccc2ncc(F)c(CCC34CCC(NCc5ccc6c(n5)NC(=O)CO6)(CC3)CO4)c2n1`, for which the minimal inhibitory concentration (MIC) in the assay on Escherichia coli worked out at 8 µg/mL (≈ 13.5 µM); against Enterococcus faecium, 2 µg/mL (≈ 3.37 µM); in the assay on Streptococcus pneumoniae it was 0.125 µg/mL (≈ 0.211 µM); against Acinetobacter baumannii it was 2 µg/mL (≈ 3.37 µM); in the assay on Staphylococcus aureus [2], 0.031 µg/mL (≈ 0.0522 µM); in the assay with Pseudomonas aeruginosa it was 8 µg/mL (≈ 13.5 µM). In addition, in the assay on Staphylococcus aureus [1], the “growth inhibition (GI)” value is “Active”.

In the case of `NC1CC1COc1ccc2ncc(F)c(CCC34CCC(NCc5ccc6c(n5)NC(=O)CO6)(CC3)CO4)c2n1` (stereo not given), the minimal inhibitory concentration (MIC) against Escherichia coli amounted to 2 µg/mL (≈ 3.65 µM); in the assay on Enterococcus faecium it was 4 µg/mL (≈ 7.29 µM); in the assay with Streptococcus pneumoniae, 1 µg/mL (≈ 1.82 µM); with Acinetobacter baumannii, 0.25 µg/mL (≈ 0.456 µM); in the assay on Staphylococcus aureus [2] it was 0.125 µg/mL (≈ 0.228 µM); against Pseudomonas aeruginosa, 16 µg/mL (≈ 29.2 µM). Besides, in the assay on Staphylococcus aureus [1], the “growth inhibition (GI)” value is “Active”.

With `O=C1COc2ccc(CNC34CCC(CCc5c(F)cnc6ccc(OC[C@H]7C[C@@H](O)[C@@H](O)C7)nc56)(CC3)OC4)nc2N1`, the MIC in the assay with Escherichia coli turned out to be 8 µg/mL (≈ 13.5 µM); against Enterococcus faecium, 4 µg/mL (≈ 6.74 µM); against Streptococcus pneumoniae, 0.5 µg/mL (≈ 0.842 µM); against Acinetobacter baumannii, 8 µg/mL (≈ 13.5 µM); against Staphylococcus aureus [2] it was 0.063 µg/mL (≈ 0.106 µM); against Pseudomonas aeruginosa, 8 µg/mL (≈ 13.5 µM). The “growth inhibition (GI)” value in the assay on Staphylococcus aureus [1] is “Active”.

Consider `CCOC(=O)COc1ccc2ncc(F)c(CCC34CCC(NCc5ccc6c(n5)NC(=O)CO6)(CC3)CO4)c2n1`, for which the minimal inhibitory concentration (MIC) in the assay on Escherichia coli amounted to 16 µg/mL (≈ 28.3 µM); against Enterococcus faecium, 16 µg/mL (≈ 28.3 µM); in the assay on Streptococcus pneumoniae, 16 µg/mL (≈ 28.3 µM); with Acinetobacter baumannii, 8 µg/mL (≈ 14.1 µM); in the assay with Staphylococcus aureus [2] it was 0.25 µg/mL (≈ 0.442 µM); in the assay with Pseudomonas aeruginosa it was 16 µg/mL (≈ 28.3 µM). Besides, the “growth inhibition (GI)” value in the assay on Staphylococcus aureus [1] is “Active”.

(Values after ChEMBL document CHEMBL3603744, “Structure activity relationship of C-2 ether substituted 1,5-naphthyridine analogs of oxabicyclooctane-linked novel bacterial topoisomerase inhibitors as broad-spectrum antibacterial agents (Part-5)” (Bioorg Med Chem Lett, 2015).)
